6 compounds from patent EP1773779B1, “NICOTINIC RECEPTOR AGONISTS FOR THE TREATMENT OF INFLAMMATORY DISEASES” (Université Laval, priority 2004, dated 2006) can be followed below.

Assay [1] has as its system Tumor necrosis factor (TNF) release. Description: TNF release by LPS-stimulated human blood monocytes (ELISA). The format is cell-based. The method, then: Human monocytes were isolated from the blood of asthmatic patients by Ficoll-paque density gradient, let to adhere to tissue culture plates and stimulated with LPS (100ng/ml) for 18 hours at 37°C with or without increasing concentrations of nicotine. The release of TNF, a potent pro-inflammatory mediator, was measured in the cell culture supernatant by the ELISA method. Results are expressed as a percentage release from LPS-stimulated untreated cells (Fig. 28).
Tumor necrosis factor (TNF) is a mediator released in inflammatory states. Human blood monocytes were stimulated in vitro with lipopolysaccharide (LPS) to produce large amounts of TNF, increasing doses of ASM-002 were added and the levels of TNF were measured (Fig. 37, EC50= 3µM, n=6, p= 0,0045 at 5 µm, 0,0014 at 10 µm and 0,0003 at 50 µm).
(In an ELISA, binding on a coated surface is turned into a signal by an enzyme label.)

The subject of assay [2] is Leukotriene C4 (LTC4)production. Description: LTC4 production by PAF-stimulated blood eosinophils (enzyme immunoassay). The format is cell-based, Human. The note with it: for LTC4: pre-incubated 18hours with analogs, then 1 µM PAF, untreated 1725.80. The method, then:
Blood eosinophils, the most increased inflammatory cells in asthma, were isolated by negative selection using bead-conjugated anti-CD16 monoclonal antibody and magnetic activating cell sorting. Cells were pre-incubated for 18hours with the various DMPP analogs and then stimulated with 1 µM platelet-activating factor (PAF) to produce LTC4 which was measured by enzyme immunoassay. […] Table 1 Effects of DMPP and analogs on LTC4 release.
Leukotriene C4 (LTC4) is a inflammatory lipid mediator highly produced in asthma, it is released in large amounts by blood eosinophils.
Human blood eosinophils were isolated from blood of asthmatic patients, stimulated in vitro with platelet activating factor (PAF) to produce large amounts of LTC4 , and treated or not with 80 µM ASM-002.

Assay [3] relates to mouse tracheal airway smooth muscle. Description: Isometric study on isolated mouse tracheal rings pre-contracted with metacholine. The note with it: cumulative doses of ASM-002; Fig. 34, p=0.002. The method, then:
Tracheal rings were mounted isometrically to force transducers in organ baths containing Krebs bicarbonate solution at 37°C and bubbled with 95% O2- 5% CO2, pre-contracted with submaximal concentration of metacholine (10^-5) and cumulative doses of the analogs were added to the baths. Changes of tension are recorded. Results are expressed as a percentage of maximal contraction (Fig. 29).
(§1) As described previously, tracheal or bronchial rings were mounted isometrically to force transducers in organ baths containing Krebs bicarbonate solution at 37°C and bubbled with 95% O2- 5% CO2,pre-contracted with submaximal concentration of metacholine cumulative doses of ASM-002 added. Changes of tension are recorded.

Assay [4] has as its system bronchial rings from dog's lungs. Kind of assay: Isometric study on dog bronchial rings pre-contracted with metacholine. As to conditions: cumulative doses of ASM-002; Fig. 35, p=0.004. The protocol: as §1
Assay [5] deals with bronchial rings from resected human lungs. Description: Isometric study on human bronchial rings pre-contracted with metacholine. As to conditions: cumulative doses of ASM-002; Fig. 36. The protocol: as §1
In assay [6] the test system is Ovalbumin-sensitized mice. Kind of assay: Lung inflammation in ovalbumin-sensitized mice (cells in broncho-alveolar lavage). The class given is in vivo. As to conditions: intra-nasally 0.5 to 4 mg/kg/d for 3 days, n = 8, Fig. 30. The method, then:
Ovalbumin-sensitized mice (ri=8) were challenged with the allergen and simultaneously treated intra-nasally with increasing concentrations of ASM-002 (0.5 to 4 mg/kg/d) for 3 days. The number of cells recovered by broncho-alveolar lavage was used as a measure of lung inflammation.

Assay [7] concerns Ovalbumin-sensitized animals. Kind of assay: Lung resistance to metacholine in mouse model of asthma (Flexi-vent). The note with it: ASM-002 4mg/kg intra-nasally 3 days and 10 minutes prior to challenge; Salbutamol 10 minutes before; Fig. 31. The class given is in vivo, mice. The method, then: Lung response to a broncho-constrictive agent, metacholine, was measured by a Flexi-vent® apparatus. Ovalbumin-sensitized animals were treated intra-nasally with ASM-002 (4mg/kg) during 3 days and 10 minutes prior to the metacholine challenge and compared to untreated OVA-sensitized animals. A negative control group of un-sensitized animals and a positive control group that received Salbutamol (Ventolin) 10 minutes before the metacholine challenge were also included.

The subject of assay [8] is dogs naturally sensitized to the roundworm Ascaris suum. Kind of assay: Dog asthma model: cellular inflammation in bronchoalveolar lavages. The format is in vivo. The note with it: ASM-002 8 mg/kg (4mg/kg 2x day in the food), prednisone 1mg/kg 1x day in the food, n = 12; Fig. 32. The method, then: (§2) In this model 12 dogs naturally sensitized to the roundworm Ascaris suum were used in a cross-over study design. Four groups of 3 dogs were randomly formed, exposed to the allergen, and each animal was left either untreated or received alternalively, ASM-002 (4mg/kg 2x day in the food), or prednisone (1mg/kg 1x day in the food), the most commonly used corticosteroid drug used to treat inflammation in asthma.
Cellular inflammation was evaluated in the bronchoalveolar lavages.

Assay [9] shares this test system. Description: Dog model of lung hyper-responsiveness (metacholine, lung resistance). The class given is in vivo. The note with it: 12 hyperresponsive dogs, increasing concentrations of metacholine; Fig. 33. The protocol: as §2
Hyper-responsiveness is described as the capacity of the lung to react (to increase lung resistance) to a non-specific external stimuli like metacholine or to allergens. A hyper-responsive allergen-sensitized dog (asthmatic) will react to lower concentrations of metacholine compared to a non allergic dog. Similarly, improvement in lung hyper-responsivenes is shown by an increase in metacholine concentrations necessary to induce the same level of lung resistance.
Increasing concentrations of metacholine were administered with or without treatment with ASM-002 or Prednisone™ and lung resistance recorded.

The term EC50 denotes the concentration that produces a half-maximal response. “1,1-dimethyl-4-phenylhomopiperazinium iodide [ASM-002]”: the EC50 in [1] (LPS-stimulated human blood monocytes, increasing doses, n=6, Fig. 37, read-out: EC50, inhibition of TNF release) amounted to 3000 nM. In addition, in [1] (all drugs at 40 µM, mean of 5 subjects, Fig. 38), the TNF release result is listed as “inhibits TNF release”. The LTC4 production entry in assay [2] (80 µM, PAF-stimulated eosinophils of asthmatic patients, 6 patients, Fig. 39, p=0.0007) was “significant inhibition”. In assay [2], this compound returned an LTC4 of 246.40 pg/mL. Also, the “relaxing effect on pre-contracted tracheas” value in [3] is recorded as “relaxing effect”. For the same compound, the “relaxing effect on pre-contracted bronchi” value in assay [4] and in [5] was “relaxing effect” throughout. Further, in [6], the “ED50, cellular inflammation in the lungs” value turned out to be 0.71 mg/kg. For the same compound, the “lung resistance induced by metacholine” value in assay [7] was “significant reduction (return to baseline levels)”. Besides, the “cellular inflammation in the lungs” value in assay [8] is recorded as “inhibits significantly the cellular inflammation”. Further, the “dogs with decreased lung resistance / improved hyper-responsiveness” value in assay [9] is listed as 7 out of 12.

Turning to `CCC[N+]1(C)CCN(c2ccccc2)CC1` [ASM-004], the LTC4 in assay [2] is 601.60 pg/mL.

In the case of `CC[N+]1(CC)CCN(c2ccccc2)CC1` [ASM-005], in assay [1] (monocytes from asthmatic patients, LPS (100ng/ml) 18 hours at 37°C, increasing concentrations, Fig. 28), the TNF release result was “Except for ASM-005, all analogs tested had an inhibitory effect on TNF release”.

Compound `C[N+]1(C)CCN(c2ccccc2)CC1` [DMPP, Dimethylphenylpiperazinium, reference compound] registered an LTC4 in assay [2] of 545.00 pg/mL.

For `C[C@]12C=CC(=O)C=C1CC[C@@H]1[C@@H]2C(=O)C[C@@]2(C)[C@H]1CC[C@]2(O)C(=O)CO` [Prednisone, prednisone, reference compound], the “dogs with decreased lung resistance / improved hyper-responsiveness” value in assay [9] was “None of the 12 dogs”.

As for `CC(C)(C)NCC(O)c1ccc(O)c(CO)c1` (stereo not shown) [Salbutamol, reference compound], the “lung resistance induced by metacholine” value in [7] was “This effect is similar to that obtained with Salbutamol”.
